Measured values taken from patent US20090131356A1, “miR-15, miR-26, miR-31, miR-145, miR-147, miR-188, miR-215, miR-216, miR-331, mmu-miR-292-3P REGULATED GENES AND PATHWAYS AS TARGETS FOR THERAPEUTIC INTERVENTION” (ASURAGEN, INC., priority 2006, published 2009).

Columns and labels:
SCLC and NSCLC cells = conditions: various lung cancer cells, SCLC and NSCLC (Tsai et al., 1993; Ohsaki et al., 1992); cited from earlier work
H226 lung cancer cells = assay: Long-term growth curve with repeated electroporation, H226; format: cell-based, human; conditions: 1.6 μM electroporated, repeated on days 6, 17 and 25; day 31; relative to control cells (100%)
Experimental: To evaluate the therapeutic activity of hsa-miR-147 over an extended period of time, the inventors conducted growth curve experiments in the presence of miRNA for up to 31 days in H226 lung cancer cells. Since in vitro transfections of naked interfering RNAs, such as synthetic miRNA, are transient by nature and compromised by the dilution of the oligo during ongoing cell divisions, miRNA was administered at multiple time points (Bartlett et al., 2006; Bartlett et al., 2007). To accommodate miRNA delivery into a large quantity of cells, hsa-miR-147 or negative control miRNA were delivered by the electroporation method. Briefly, 1×10^6 H226 were electroporated in triplicate with 1.6 μM hsa-miR-147 or negative control using the BioRad Gene Pulser Xcell™ instrument (BioRad Laboratories Inc., Hercules, Calif., USA), seeded and propagated in regular growth medium. When the control cells reached confluence (days 6, 17 and 25), cells were harvested, counted and electroporated again with the respective miRNAs. […] The population doubling was calculated from these electroporation events using the formula PD=ln(Nf/N0)/ln2 and adjusting for the fact that approximately 72% of newly seeded cells adhere to the plate. […]

[1] = test system: PC3 human prostate cancer cells; assay: Long-term growth curve with repeated electroporation, PC3; format: cell-based; conditions: 1.6 μM electroporated, repeated on days 7 and 14; by day 21
Experimental: To evaluate the therapeutic activity of hsa-miR-147 over an extended period of time, the inventors conducted growth curve experiments in the presence of miRNA for up to 21 days. Since in vitro transfections of naked interfering RNAs, such as synthetic miRNA, are transient by nature and compromised by the dilution of the oligo during ongoing cell divisions, miRNA was administered at multiple time points (Bartlett et al., 2006; Bartlett et al., 2007). To accommodate miRNA delivery into a large quantity of cells, the inventors employed the electroporation method to delivery hsa-miR-147 or negative control miRNA into PC3 and Du145 human prostate cancer cells. Briefly, 1×10^6 PC3 cells and 0.5×10^6 Du145 cells were electroporated with 1.6 μM hsa-miR-147 or negative control using the BioRad Gene Pulser Xcell™ instrument (BioRad Laboratories Inc., Hercules, Calif., USA), seeded and propagated in regular growth medium. Experiments with PC3 and Du145 cells were carried out in triplicates. When the control cells reached confluence (days 7 and 14), cells were harvested, counted and electroporated again with the respective miRNAs. […] The population doubling was calculated from these electroporation events using the formula PD=ln(Nf/N0)/ln2 and adjusting for the fact that approximately 72% of newly seeded cells adhere to the plate. […]

Molecule | IC50 (SCLC and NSCLC cells) | inhibition of H226 cell growth (H226 lung cancer cells) | remaining cells (H226 lung cancer cells) | fate of PC3 cells in long-term growth curve [1]
COc1cc([C@@H]2c3cc4c(cc3[C@@H](O[C@@H]3O[C@@H]5CO[C@@H](C)O[C@H]5[C@H](O)[C@H]3O)[C@H]3COC(=O)[C@H]23)OCO4)cc(OC)c1O [Etoposide, etoposide] | 1 to 25 µM | – | – | –
hsa-miR-147: Synthetic pre-miR-147 (Ambion AM17100; Dharmacon in vivo); mature sequence GUGUGUGGAAAUGCUUCUGC, MIMAT0000251, SEQ ID NO:114 (synthetic pre-miR (Ambion/Dharmacon), chemistry not given here; listed as Homo sapiens) | – | 90.9% | 9.1% | eliminated
